Test results from patent US12065436B2, “Cardiac sarcomere inhibitors” (Cytokinetics, Inc., priority 2018, dated 2024).

Target: bovine cardiac myofibrils (full-length cardiac myosin ATPase in the native sarcomere) (Bos taurus (Bovine), UniProt Q9BE39)
Test: Skinned bovine cardiac myofibril ATPase assay (PK/LDH-coupled)
Assay type: biochemical
Details: Ca2+ activating to 75% of maximal rate; for CDMF75 IC15: concentration giving 15% inhibition; for IC50: read-out: CDMF75 IC50
Summary of the method: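 Triton-skinned bovine left-ventricle myofibrils (1 mg/mL) in PM 12 buffer (12 mM PIPES, 2 mM MgCl2, pH 6.8) with 50 μM ATP, 0.6 mM EGTA and CaCl2 set for 50% or 75% activation. Steady-state ATPase inhibition followed by PK/LDH-coupled NADH oxidation at 340 nm.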

bovine cardiac myofibrils (full-length cardiac myosin ATPase in the native sarcomere), sequence (Q9BE39 whole entry): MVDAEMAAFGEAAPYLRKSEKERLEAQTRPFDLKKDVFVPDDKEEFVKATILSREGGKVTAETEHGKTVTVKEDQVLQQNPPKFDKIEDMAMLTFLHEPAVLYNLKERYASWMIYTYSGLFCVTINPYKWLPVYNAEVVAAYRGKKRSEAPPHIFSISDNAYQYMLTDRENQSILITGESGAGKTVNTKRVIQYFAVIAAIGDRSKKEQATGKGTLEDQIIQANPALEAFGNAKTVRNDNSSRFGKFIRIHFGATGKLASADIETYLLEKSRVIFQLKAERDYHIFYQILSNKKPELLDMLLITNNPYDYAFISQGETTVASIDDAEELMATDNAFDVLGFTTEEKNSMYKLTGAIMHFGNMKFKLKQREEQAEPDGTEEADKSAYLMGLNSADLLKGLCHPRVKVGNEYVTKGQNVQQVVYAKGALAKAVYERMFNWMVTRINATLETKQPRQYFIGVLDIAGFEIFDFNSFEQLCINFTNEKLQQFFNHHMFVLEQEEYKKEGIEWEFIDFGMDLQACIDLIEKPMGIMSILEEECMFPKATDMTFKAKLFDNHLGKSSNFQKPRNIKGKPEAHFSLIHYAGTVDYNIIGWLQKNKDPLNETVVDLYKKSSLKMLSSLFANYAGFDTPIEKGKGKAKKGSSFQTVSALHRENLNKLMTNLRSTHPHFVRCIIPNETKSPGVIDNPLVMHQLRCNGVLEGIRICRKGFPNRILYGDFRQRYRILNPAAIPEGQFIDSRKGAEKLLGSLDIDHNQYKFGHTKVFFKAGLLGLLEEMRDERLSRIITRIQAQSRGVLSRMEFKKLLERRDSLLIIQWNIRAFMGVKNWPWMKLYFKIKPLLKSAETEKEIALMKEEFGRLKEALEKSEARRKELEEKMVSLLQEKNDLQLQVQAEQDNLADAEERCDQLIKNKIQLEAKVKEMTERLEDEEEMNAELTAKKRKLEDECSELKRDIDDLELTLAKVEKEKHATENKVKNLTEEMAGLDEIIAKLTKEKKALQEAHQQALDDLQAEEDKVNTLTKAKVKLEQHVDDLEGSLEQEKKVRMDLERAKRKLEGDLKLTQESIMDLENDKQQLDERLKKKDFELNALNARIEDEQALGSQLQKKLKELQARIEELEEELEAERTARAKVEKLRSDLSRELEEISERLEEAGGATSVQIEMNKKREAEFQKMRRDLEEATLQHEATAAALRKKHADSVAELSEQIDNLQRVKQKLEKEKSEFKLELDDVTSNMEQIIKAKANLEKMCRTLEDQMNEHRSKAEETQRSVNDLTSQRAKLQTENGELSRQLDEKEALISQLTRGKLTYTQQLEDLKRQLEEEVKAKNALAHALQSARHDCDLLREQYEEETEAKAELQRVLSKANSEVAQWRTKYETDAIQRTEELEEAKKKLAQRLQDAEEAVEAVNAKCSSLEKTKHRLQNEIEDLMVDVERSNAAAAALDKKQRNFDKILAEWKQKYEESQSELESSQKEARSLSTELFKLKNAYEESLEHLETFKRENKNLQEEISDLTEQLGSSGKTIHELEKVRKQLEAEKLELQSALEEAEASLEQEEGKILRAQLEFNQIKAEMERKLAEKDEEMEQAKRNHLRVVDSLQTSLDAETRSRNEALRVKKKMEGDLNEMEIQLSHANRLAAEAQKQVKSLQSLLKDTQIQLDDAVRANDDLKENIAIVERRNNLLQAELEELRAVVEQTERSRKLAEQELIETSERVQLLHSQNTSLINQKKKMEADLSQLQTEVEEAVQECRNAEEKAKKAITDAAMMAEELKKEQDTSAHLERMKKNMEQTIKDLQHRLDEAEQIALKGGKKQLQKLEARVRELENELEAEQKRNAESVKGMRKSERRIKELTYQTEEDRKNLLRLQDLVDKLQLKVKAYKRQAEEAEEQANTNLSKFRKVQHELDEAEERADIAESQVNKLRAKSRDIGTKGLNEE
bovine cardiac myofibrils (full-length cardiac myosin ATPase in the native sarcomere), sequence (P85100 whole entry partner): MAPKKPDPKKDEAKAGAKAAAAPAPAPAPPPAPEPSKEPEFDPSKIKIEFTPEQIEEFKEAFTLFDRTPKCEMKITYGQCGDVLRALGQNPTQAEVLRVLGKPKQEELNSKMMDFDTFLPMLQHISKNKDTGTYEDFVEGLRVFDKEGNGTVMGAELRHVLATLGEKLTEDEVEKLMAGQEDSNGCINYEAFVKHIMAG
bovine cardiac myofibrils (full-length cardiac myosin ATPase in the native sarcomere), sequence (Q3SZE5 whole entry partner): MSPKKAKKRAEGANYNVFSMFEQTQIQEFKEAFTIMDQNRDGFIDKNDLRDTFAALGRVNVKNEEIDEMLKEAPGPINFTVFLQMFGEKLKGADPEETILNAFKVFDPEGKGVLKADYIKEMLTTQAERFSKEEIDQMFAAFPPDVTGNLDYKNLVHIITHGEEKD

Row | CDMF75 IC15 | IC50 | SMILES
1 | 0.9 µM | 4.7 µM | O=C(NC1CCc2cc(-c3noc(C(F)F)n3)ccc21)c1cnn2c1CCC2 (centres unmarked) [Compound 36, N-(5-(5-(difluoromethyl)-1,2,4-oxadiazol-3-yl)-2,3-dihydro-1H-inden-1-yl)-5,6-dihydro-4H-pyrrolo[1,2-b]pyrazole-3-carboxamide]
2 | 0.8 µM | 2.5 µM | Cc1cc(-c2ccc3c(c2)CC[C@H]3NC(=O)c2cn[nH]c2C)no1 [Compound 432, (R)-5-methyl-N-(5-(5-methylisoxazol-3-yl)-2,3-dihydro-1H-inden-1-yl)-1H-pyrazole-4-carboxamide]
3 | 1.3 µM | 4.9 µM | Cn1nnc(C(=O)N[C@@H]2CCc3cc(-c4nc(C(F)F)no4)ccc32)n1 [Compound 216, (R)-N-(5-(3-(difluoromethyl)-1,2,4-oxadiazol-5-yl)-2,3-dihydro-1H-inden-1-yl)-2-methyl-2H-tetrazole-5-carboxamide]
4 | 3.9 µM | 15.7 µM | CCc1nc(-c2ccc3c(c2)CC[C@H]3NC(=O)c2cnn(CCCOC)c2C)no1 [Compound 598, (R)-N-(5-(5-ethyl-1,2,4-oxadiazol-3-yl)-2,3-dihydro-1H-inden-1-yl)-1-(3-methoxypropyl)-5-methyl-1H-pyrazole-4-carboxamide]
5 | 4.3 µM | 17.7 µM | Cc1cc(C(=O)NC2CCc3cc(-c4nc(C(F)F)no4)ccc32)ccn1 (centres unmarked) [Compound 132, N-(5-(3-(difluoromethyl)-1,2,4-oxadiazol-5-yl)-2,3-dihydro-1H-inden-1-yl)-2-methylisonicotinamide]
6 | 0.2 µM | 0.6 µM | CCc1nc(-c2ccc3c(c2)CC[C@H]3NC(=O)c2cnoc2C)no1 [Compound 564, (R)-N-(5-(5-ethyl-1,2,4-oxadiazol-3-yl)-2,3-dihydro-1H-inden-1-yl)-5-methylisoxazole-4-carboxamide]
7 | 4.5 µM | 17.8 µM | Cc1cccc(-c2ccc3c(c2)CC[C@H]3NC(=O)c2ccnn2C)n1 [Compound 377, (R)-1-methyl-N-(5-(6-methylpyridin-2-yl)-2,3-dihydro-1H-inden-1-yl)-1H-pyrazole-5-carboxamide]
8 | 0.5 µM | 2.1 µM | CCc1nc(-c2ccc3c(c2)CC[C@H]3NC(=O)c2cc(O)no2)no1 [Compound 634, (R)-N-(5-(5-ethyl-1,2,4-oxadiazol-3-yl)-2,3-dihydro-1H-inden-1-yl)-3-hydroxyisoxazole-5-carboxamide]
9 | 0.4 µM | 1.5 µM | CCc1nc(-c2cc(F)c3c(c2)CC[C@H]3NC(=O)c2cnn(C)c2)no1 [Compound 554, (R)-N-(5-(5-ethyl-1,2,4-oxadiazol-3-yl)-7-fluoro-2,3-dihydro-1H-inden-1-yl)-1-methyl-1H-pyrazole-4-carboxamide]
10 | 0.2 µM | 0.8 µM | Cn1nccc1C(=O)N[C@@H]1CCc2cc(-c3noc(C4CC4)n3)ccc21 [Compound 241, (R)-N-(5-(5-cyclopropyl-1,2,4-oxadiazol-3-yl)-2,3-dihydro-1H-inden-1-yl)-1-methyl-1H-pyrazole-5-carboxamide]
11 | 1.2 µM | 5.4 µM | COCc1nc(-c2ccc3c(c2)OC[C@H]3NC(=O)c2cccc([C@H](C)O)c2)no1 [Compound 736, 3-((S)-1-hydroxyethyl)-N-((S)-6-(5-(methoxymethyl)-1,2,4-oxadiazol-3-yl)-2,3-dihydrobenzofuran-3-yl)benzamide]
12 | 13.0 µM | > 39.2 µM | CCc1nc(-c2ccc3c(c2)CC[C@H]3NC(=O)C2CCC(=O)N(C)C2)no1 (stereo partly drawn) [Compound 352, N-((R)-5-(5-ethyl-1,2,4-oxadiazol-3-yl)-2,3-dihydro-1H-inden-1-yl)-1-methyl-6-oxopiperidine-3-carboxamide]
13 | 1.0 µM | 3.6 µM | Cc1noc(-c2ccc3c(c2)CC[C@H]3NC(=O)c2nnn(C)n2)n1 [Compound 203, (R)-2-methyl-N-(5-(3-methyl-1,2,4-oxadiazol-5-yl)-2,3-dihydro-1H-inden-1-yl)-2H-tetrazole-5-carboxamide]
14 | 1.9 µM | 7.4 µM | O=C(N[C@@H]1CCc2cc(-c3noc(C(F)F)n3)ccc21)c1cc(O)no1 [Compound 674, (R)-N-(5-(5-(difluoromethyl)-1,2,4-oxadiazol-3-yl)-2,3-dihydro-1H-inden-1-yl)-3-hydroxyisoxazole-5-carboxamide]
15 | 0.3 µM | 0.8 µM | CCc1nc(-c2ccc3c(c2)CC[C@H]3NC(=O)c2ocnc2C)no1 [Compound 386, (R)-N-(5-(5-ethyl-1,2,4-oxadiazol-3-yl)-2,3-dihydro-1H-inden-1-yl)-4-methyloxazole-5-carboxamide]
16 | 2.0 µM | 9.2 µM | CC(=O)N[C@@H]1COc2cc(-c3noc(C4CCC4)n3)ccc21 [Compound 458, (S)-N-(6-(5-cyclobutyl-1,2,4-oxadiazol-3-yl)-2,3-dihydrobenzofuran-3-yl)acetamide]

Row | CDMF75 IC15 | IC50 | SMILES
17 | 0.4 µM | 1.4 µM | CCc1nc(-c2ccc3c(c2)OC[C@H]3NC(=O)c2cnc(C)o2)no1 [Compound 464, (S)-N-(6-(5-ethyl-1,2,4-oxadiazol-3-yl)-2,3-dihydrobenzofuran-3-yl)-2-methyloxazole-5-carboxamide]
18 | 0.8 µM | 3.4 µM | O=C(N[C@@H]1CCc2cc(-c3noc(C4CCC4)n3)ccc21)c1nnn(Cc2ccccc2)n1 [Compound 503, (R)-2-benzyl-N-(5-(5-cyclobutyl-1,2,4-oxadiazol-3-yl)-2,3-dihydro-1H-inden-1-yl)-2H-tetrazole-5-carboxamide]
19 | 0.5 µM | 2 µM | COCc1nc(-c2ccc3c(c2)CC[C@H]3NC(=O)c2oncc2C)no1 [Compound 114, (R)-N-(5-(5-(methoxymethyl)-1,2,4-oxadiazol-3-yl)-2,3-dihydro-1H-inden-1-yl)-4-methylisoxazole-5-carboxamide]
20 | 0.8 µM | 3.8 µM | COCc1nc(-c2ccc3c(c2)CC[C@H]3NC(=O)c2cccc([C@H](C)O)c2)no1 [Compound 728, 3-((S)-1-hydroxyethyl)-N-((R)-5-(5-(methoxymethyl)-1,2,4-oxadiazol-3-yl)-2,3-dihydro-1H-inden-1-yl)benzamide]
21 | 1.2 µM | 4.3 µM | [2H]C([2H])([2H])c1noc(-c2ccc3c(c2)CC[C@H]3NC(=O)c2nnn(C)n2)n1 [Compound 272, (R)-2-methyl-N-(5-(3-(methyl-d3)-1,2,4-oxadiazol-5-yl)-2,3-dihydro-1H-inden-1-yl)-2H-tetrazole-5-carboxamide]
22 | 5.6 µM | 21.4 µM | CCOC(=O)C(C)c1nc(-c2ccc3c(c2)CCC3NC(=O)c2cnc(C)o2)no1 (centres unmarked) [Compound 493, ethyl 2-(3-(1-(2-methyloxazole-5-carboxamido)-2,3-dihydro-1H-inden-5-yl)-1,2,4-oxadiazol-5-yl)propanoate]
23 | 4.3 µM | 20.3 µM | CC#Cc1ccc2c(c1)CC[C@H]2NC(=O)c1ccnn1C [Compound 452, (R)-1-methyl-N-(5-(prop-1-yn-1-yl)-2,3-dihydro-1H-inden-1-yl)-1H-pyrazole-5-carboxamide]
24 | 5.7 µM | 28.2 µM | Cc1nc(-c2ccc3c(c2)CCC3NC(=O)c2ncccc2C)no1 (centres unmarked) [Compound 59, 3-methyl-N-(5-(5-methyl-1,2,4-oxadiazol-3-yl)-2,3-dihydro-1H-inden-1-yl)picolinamide]
25 | 0.9 µM | 3.6 µM | O=C(N[C@@H]1COc2cc(-c3noc(C(F)F)n3)ccc21)c1cc(CO)ccn1 [Compound 707, (S)-N-(6-(5-(difluoromethyl)-1,2,4-oxadiazol-3-yl)-2,3-dihydrobenzofuran-3-yl)-4-(hydroxymethyl)picolinamide]
26 | 0.7 µM | 2.1 µM | CCc1nc(-c2ccc3c(c2)OCC3NC(=O)c2cnn(C)c2)no1 (centres unmarked) [Compound 239, N-(6-(5-ethyl-1,2,4-oxadiazol-3-yl)-2,3-dihydrobenzofuran-3-yl)-1-methyl-1H-pyrazole-4-carboxamide]
27 | 1.6 µM | 7.2 µM | O=C(N[C@@H]1CCc2cc(-c3noc(C(F)F)n3)ccc21)c1cccc(CO)c1F [Compound 662, (R)-N-(5-(5-(difluoromethyl)-1,2,4-oxadiazol-3-yl)-2,3-dihydro-1H-inden-1-yl)-2-fluoro-3-(hydroxymethyl)benzamide]
28 | 0.5 µM | 1.7 µM | CCc1nc(-c2ccc3c(c2)CC[C@H]3NC(=O)OC2COC2)no1 [Compound 357, oxetan-3-yl (R)-(5-(5-ethyl-1,2,4-oxadiazol-3-yl)-2,3-dihydro-1H-inden-1-yl)carbamate]
29 | 1.9 µM | 6.9 µM | CCc1nc(-c2ccc3c(c2)OC[C@H]3NC(=O)N2CC[C@@H](O)C2)no1 [Compound 740, (R)-N-((S)-6-(5-ethyl-1,2,4-oxadiazol-3-yl)-2,3-dihydrobenzofuran-3-yl)-3-hydroxypyrrolidine-1-carboxamide]
30 | 2.1 µM | 9.5 µM | Cc1nc(-c2ccc3c(c2)OC[C@H]3NC(=O)c2ccnc(C(C)O)c2)no1 (stereo partly drawn) [Compound 738, 2-(1-hydroxyethyl)-N-((S)-6-(5-methyl-1,2,4-oxadiazol-3-yl)-2,3-dihydrobenzofuran-3-yl)isonicotinamide]
31 | 0.7 µM | 3.4 µM | Cc1nc(-c2ccc3c(c2)CC[C@H]3NC(=O)c2cc(C(F)F)ccn2)no1 [Compound 732, (R)-4-(difluoromethyl)-N-(5-(5-methyl-1,2,4-oxadiazol-3-yl)-2,3-dihydro-1H-inden-1-yl)picolinamide]
